According to US10894817B2, “Fatty acid modified urocortin-2 analogs for the treatment of diabetes and chronic kidney disease” (priority 2016, dated 2021):
Starred links: 1 amine or outer side, 2 acyl side, 3 side chain; linkers in the order of their positions; H or OH if unused. Residues, ends and D or L forms follow the SMILES beside them. Groups on a side chain read outwards from the residue. *: point of attachment. C18 diacid = O=C(O)CCCCCCCCCCCCCCCCC(=O)*; γGlu = O=C(O)[C@H](CCC(=O)[*:2])N[*:1]; Palmitoyl = CCCCCCCCCCCCCCCC(=O)*; AEEA = NCCOCCOCC(=O)O

Molecular target: T1, human CRHR2b (Homo sapiens, UniProt Q13324)
T1 construct: expressed in transfected cells; host or cells: Chinese Hamster Ovary (CHO) cells, transient transfection
T1 sequence (Q13324 1-438 isoform Q13324-2): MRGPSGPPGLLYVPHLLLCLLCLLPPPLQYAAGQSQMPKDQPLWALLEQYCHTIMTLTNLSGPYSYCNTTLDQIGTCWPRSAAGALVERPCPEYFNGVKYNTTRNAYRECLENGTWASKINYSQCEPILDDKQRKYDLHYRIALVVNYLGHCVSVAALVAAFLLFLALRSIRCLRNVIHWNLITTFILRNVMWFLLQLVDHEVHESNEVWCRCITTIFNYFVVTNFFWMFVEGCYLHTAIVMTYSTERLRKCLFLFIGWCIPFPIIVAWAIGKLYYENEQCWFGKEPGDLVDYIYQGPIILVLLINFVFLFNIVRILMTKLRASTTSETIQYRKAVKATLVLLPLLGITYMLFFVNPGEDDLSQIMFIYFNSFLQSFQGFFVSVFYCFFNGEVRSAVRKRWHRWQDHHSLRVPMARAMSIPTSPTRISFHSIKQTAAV
Experiment: human CRHR2b cell-based cAMP assay
Settings: cAMP assay; Table 26, compounds of Example 9; read-out: hCRHR2b Average EC50
Procedure, shortened: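 ED50 values are means ± SEM over several runs, curve-fitted from cAMP in pmol, calibrated against unlabeled-cAMP standards. Detection was HTRF competition, ratio 665/620 nm, after 30 min agonist exposure at 37 °C.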

## CCCCCCCCCCCCCCCC(=O)N[C@@H](CCC(=O)NCCCC[C@H](NC(=O)[C@H](CCC(N)=O)NC(=O)[C@H](CCC(N)=O)NC(=O)[C@H](CCCCN)NC(=O)[C@H](CCC(=O)O)NC(=O)[C@H](CCCCN)NC(=O)[C@H](CCC(=O)O)NC(=O)[C@H](CCC(N)=O)NC(=O)[C@H](CCCCN)NC(=O)[C@H](CCC(=O)O)NC(=O)[C@H](CCC(N)=O)NC(=O)[C@H](CCC(=O)O)NC(=O)[C@H](CC(C)C)NC(=O)[C@H](CC(C)C)NC(=O)[C@@H](NC(=O)[C@H](CCC(N)=O)NC(=O)[C@H](CC(C)C)NC(=O)[C@H](CC(C)C)NC(=O)CNC(=O)[C@@H](NC(=O)[C@@H]1CCCN1C(=O)[C@@H](NC(=O)[C@H](CC(=O)O)NC(=O)[C@H](CC(C)C)NC(=O)[C@H](CO)NC(=O)[C@H](CC(C)C)NC(=O)[C@@H](NC(=O)[C@@H](N)[C@@H](C)CC)C(C)C)C(C)C)[C@@H](C)CC)[C@@H](C)CC)C(=O)N[C@H](C(=O)N[C@H](C(=O)N[C@@H](CC(N)=O)C(=O)N[C@@H](C)C(=O)N[C@@H](CCCNC(=N)N)C(=O)N[C@H](C(=O)N[C@@H](CC(C)C)C(=O)N[C@@H](C)C(=O)N[C@@H](CCCNC(=N)N)C(=O)N[C@H](C(N)=O)C(C)C)[C@@H](C)CC)[C@@H](C)O)[C@@H](C)O)C(=O)O [Compound 36] (H-IVLSLDVPIGLLQILLEQEKQEKEKQQK([γGlu-Palmitoyl])TTNARILARV-NH2)
  EC50: 0.331 µM

## CCCCCCCCCCCCCCCC(=O)N[C@@H](CCC(=O)NCCCC[C@H](NC(=O)[C@H](C)NC(=O)[C@H](CCC(N)=O)NC(=O)[C@H](CCC(N)=O)NC(=O)[C@H](CCCCN)NC(=O)[C@H](CCC(=O)O)NC(=O)[C@H](CCCCN)NC(=O)[C@H](CCC(=O)O)NC(=O)[C@H](CCC(N)=O)NC(=O)[C@H](CCCCN)NC(=O)[C@H](CCC(=O)O)NC(=O)[C@H](CCC(N)=O)NC(=O)[C@H](CCC(=O)O)NC(=O)[C@H](CC(C)C)NC(=O)[C@H](CC(C)C)NC(=O)[C@@H](NC(=O)[C@H](CCC(N)=O)NC(=O)[C@H](CC(C)C)NC(=O)[C@H](CC(C)C)NC(=O)CNC(=O)[C@@H](NC(=O)[C@@H]1CCCN1C(=O)[C@@H](NC(=O)[C@H](CC(=O)O)NC(=O)[C@H](CC(C)C)NC(=O)[C@H](CO)NC(=O)[C@H](CC(C)C)NC(=O)[C@@H](NC(=O)[C@@H](N)[C@@H](C)CC)C(C)C)C(C)C)[C@@H](C)CC)[C@@H](C)CC)C(=O)N[C@H](C(=O)N[C@@H](CC(N)=O)C(=O)N[C@@H](C)C(=O)N[C@@H](CCCNC(=N)N)C(=O)N[C@H](C(=O)N[C@@H](CC(C)C)C(=O)N[C@@H](C)C(=O)N[C@@H](CCCNC(=N)N)C(=O)N[C@H](C(N)=O)C(C)C)[C@@H](C)CC)[C@@H](C)O)C(=O)O [Compound 37] (H-IVLSLDVPIGLLQILLEQEKQEKEKQQAK([γGlu-Palmitoyl])TNARILARV-NH2)
  EC50: 0.0241 µM

## CCCCCCCCCCCCCCCC(=O)N[C@@H](CCC(=O)N[C@@H](CCC(=O)NCCCC[C@H](NC(=O)[C@H](C)NC(=O)[C@H](CCC(N)=O)NC(=O)[C@H](CCC(N)=O)NC(=O)[C@H](CCCCN)NC(=O)[C@H](CCC(=O)O)NC(=O)[C@H](CCCCN)NC(=O)[C@H](CCC(=O)O)NC(=O)[C@H](CCC(N)=O)NC(=O)[C@H](CCCCN)NC(=O)[C@H](CCC(=O)O)NC(=O)[C@H](CCC(N)=O)NC(=O)[C@H](CCC(=O)O)NC(=O)[C@H](CC(C)C)NC(=O)[C@H](CC(C)C)NC(=O)[C@@H](NC(=O)[C@H](CCC(N)=O)NC(=O)[C@H](CC(C)C)NC(=O)[C@H](CC(C)C)NC(=O)CNC(=O)[C@@H](NC(=O)[C@@H]1CCCN1C(=O)[C@@H](NC(=O)[C@H](CC(=O)O)NC(=O)[C@H](CC(C)C)NC(=O)[C@H](CO)NC(=O)[C@H](CC(C)C)NC(=O)[C@@H](NC(=O)[C@@H](N)[C@@H](C)CC)C(C)C)C(C)C)[C@@H](C)CC)[C@@H](C)CC)C(=O)N[C@H](C(=O)N[C@@H](CC(N)=O)C(=O)N[C@@H](C)C(=O)N[C@@H](CCCNC(=N)N)C(=O)N[C@H](C(=O)N[C@@H](CC(C)C)C(=O)N[C@@H](C)C(=O)N[C@@H](CCCNC(=N)N)C(=O)N[C@H](C(N)=O)C(C)C)[C@@H](C)CC)[C@@H](C)O)C(=O)O)C(=O)O [Compound 38] (H-IVLSLDVPIGLLQILLEQEKQEKEKQQAK([γGlu-γGlu-Palmitoyl])TNARILARV-NH2)
  EC50: 0.00233 µM

## CCCCCCCCCCCCCCCC(=O)N[C@@H](CCC(=O)NCCCC[C@H](NC(=O)[C@@H](NC(=O)[C@H](C)NC(=O)[C@H](CCC(N)=O)NC(=O)[C@H](CCC(N)=O)NC(=O)[C@H](CCCCN)NC(=O)[C@H](CCC(=O)O)NC(=O)[C@H](CCCCN)NC(=O)[C@H](CCC(=O)O)NC(=O)[C@H](CCC(N)=O)NC(=O)[C@H](CCCCN)NC(=O)[C@H](CCC(=O)O)NC(=O)[C@H](CCC(N)=O)NC(=O)[C@H](CCC(=O)O)NC(=O)[C@H](CC(C)C)NC(=O)[C@H](CC(C)C)NC(=O)[C@@H](NC(=O)[C@H](CCC(N)=O)NC(=O)[C@H](CC(C)C)NC(=O)[C@H](CC(C)C)NC(=O)CNC(=O)[C@@H](NC(=O)[C@@H]1CCCN1C(=O)[C@@H](NC(=O)[C@H](CC(=O)O)NC(=O)[C@H](CC(C)C)NC(=O)[C@H](CO)NC(=O)[C@H](CC(C)C)NC(=O)[C@@H](NC(=O)[C@@H](N)[C@@H](C)CC)C(C)C)C(C)C)[C@@H](C)CC)[C@@H](C)CC)[C@@H](C)O)C(=O)N[C@@H](CC(N)=O)C(=O)N[C@@H](C)C(=O)N[C@@H](CCCNC(=N)N)C(=O)N[C@H](C(=O)N[C@@H](CC(C)C)C(=O)N[C@@H](C)C(=O)N[C@@H](CCCNC(=N)N)C(=O)N[C@H](C(N)=O)C(C)C)[C@@H](C)CC)C(=O)O [Compound 39] (H-IVLSLDVPIGLLQILLEQEKQEKEKQQATK([γGlu-Palmitoyl])NARILARV-NH2)
  EC50: 0.027 µM

## CC[C@H](C)[C@H](N)C(=O)N[C@H](C(=O)N[C@@H](CC(C)C)C(=O)N[C@@H](CO)C(=O)N[C@@H](CC(C)C)C(=O)N[C@@H](CC(=O)O)C(=O)N[C@H](C(=O)N1CCC[C@H]1C(=O)N[C@H](C(=O)NCC(=O)N[C@@H](CC(C)C)C(=O)N[C@@H](CC(C)C)C(=O)N[C@@H](CCC(N)=O)C(=O)N[C@@H](CCCCNC(=O)COCCOCCNC(=O)COCCOCCNC(=O)CC[C@H](NC(=O)CC[C@H](NC(=O)CCCCCCCCCCCCCCCCC(=O)O)C(=O)O)C(=O)O)C(=O)N[C@@H](CC(C)C)C(=O)N[C@@H](CC(C)C)C(=O)N[C@@H](CCC(=O)O)C(=O)N[C@@H](CCC(N)=O)C(=O)N[C@@H](CCC(=O)O)C(=O)N[C@@H](CCCCN)C(=O)N[C@@H](CCC(N)=O)C(=O)N[C@@H](CCC(=O)O)C(=O)N[C@@H](CCCCN)C(=O)N[C@@H](CCC(=O)O)C(=O)N[C@@H](CCCCN)C(=O)N[C@@H](CCC(N)=O)C(=O)N[C@@H](CCC(N)=O)C(=O)N[C@@H](C)C(=O)N[C@H](C(=O)N[C@H](C(=O)N[C@@H](CC(N)=O)C(=O)N[C@@H](C)C(=O)N[C@@H](CCC(N)=O)C(=O)N[C@H](C(=O)N[C@@H](CC(C)C)C(=O)N[C@@H](C)C(=O)N[C@@H](Cc1c[nH]cn1)C(=O)N[C@H](C(N)=O)C(C)C)[C@@H](C)CC)[C@@H](C)O)[C@@H](C)O)[C@@H](C)CC)C(C)C)C(C)C [Compound 40] (H-IVLSLDVPIGLLQK([AEEA-AEEA-γGlu-γGlu-C18 diacid])LLEQEKQEKEKQQATTNAQILAHV-NH2)
  EC50: 0.0559 µM
